Results: paper PMC11365854, “Molecular basis of hyper-thermostability in the thermophilic archaeal aldolase MfnB” (Extremophiles, 2024)

Tests used:
MfnB_MM [1] = target: T1, MfnB_MM (Methanococcus maripaludis, UniProt Q6LZC1); assay: spectrophotometric, 4-HFC-P formation at […] nm; fit with substrate inhibition term; assay type: biochemical; details: 45 °C (optimum), pH 7.5, 20 mM Tris–HCl, 150 mM NaCl; two substrate molecules condensed
T1 construct: gene mfnB; full length, N-terminal hexa-histidine tag (pOPINF), no tag cleavage described; codon-optimised synthetic gene, expressed in E. coli BL21 (DE3)
T1 sequence (Q6LZC1 whole entry): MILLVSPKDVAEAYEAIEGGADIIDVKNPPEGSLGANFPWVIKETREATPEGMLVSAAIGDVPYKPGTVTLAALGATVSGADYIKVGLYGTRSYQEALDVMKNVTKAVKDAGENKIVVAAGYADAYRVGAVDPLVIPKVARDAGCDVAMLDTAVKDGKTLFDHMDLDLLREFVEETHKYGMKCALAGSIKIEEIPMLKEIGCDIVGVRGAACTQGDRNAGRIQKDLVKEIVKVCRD

MfnB_MJ = target: T2, MfnB_MJ (Methanocaldococcus jannaschii, UniProt Q58499); assay: as above; assay type: biochemical; details: 75 °C (optimum), pH 7.5, 20 mM Tris–HCl, 150 mM NaCl; two substrate molecules condensed; substrate inhibition constant
T2 construct: gene mfnB; full length (235 residues), N-terminal hexa-histidine tag (pOPINF), no tag cleavage described; codon-optimised synthetic gene, expressed in E. coli BL21 (DE3); homohexamer in published crystal structure

MfnB_MM [2] = target: T1, MfnB_MM; assay: as above; assay type: biochemical; details: 45 °C (optimum), pH 7.5, 20 mM Tris–HCl, 150 mM NaCl; two substrate molecules condensed; substrate inhibition constant
purified protein = substrate: O=C[C@H](O)COP(=O)(O)O; assay: purified protein; assay type: biochemical, Methanocaldococcus jannaschii; details: 75 °C (optimum), pH 7.5, 20 mM Tris–HCl, 150 mM NaCl, two substrate molecules condensed

| Km (MfnB_MM [1]) [µM] | Ki (MfnB_MJ) [µM] | Ki (MfnB_MM [2]) [µM] | Molecule | Km (purified protein) [µM] | kcat (purified protein) [s⁻¹] |
| --- | --- | --- | --- | --- | --- |
| 6.9 ± 0.6 | 565.3 ± 79.7 | 1532.0 ± 160.4 | O=C[C@H](O)COP(=O)(O)O [D-GA-3-P] |  |  |
|  |  |  | MfnB_MJ (Methanocaldococcus jannaschii DSM 2661) (protein, full length (235 residues), N-terminal hexa-histidine tag (pOPINF), no tag cleavage described; codon-optimised synthetic gene, expressed in E. coli BL21 (DE3); homohexamer in published crystal structure) MILLVSPIDVEEAKEAIAGGADIIDVKNPKEGSLGANFPWMIKAIREVTPKDLLVSATVGDVPYKPGTISLAAVGAAISGADYIKVGLYGVKNYYQAVELMKNVVRAVKDIDENKIVVAAGYADAYRVGAVEPLIVPKIARDAGCDVAMLDTAIKDGKTLFDFQSKEILAEFVDEAHSYGLKCALAGSIKKEHIPILKEIGTDIVGVRGAACKGGDRNNGRIDRELVKELKELCK | 24.6 ± 3.1 | 0.142 ± 0.0067 |
